Laboratory results reported in patent US20250051319A1 (AUGUSTINE THERAPEUTICS, priority 2021, published 2025).

Experiments:
[1] = biological target: human full-length recombinant HDAC6 (Homo sapiens (Human), UniProt Q9UBN7); experiment: HDAC6 enzymatic activity assay (Reaction Biology Corporation, RHKKAc fluorogenic peptide); format: biochemical; conditions: Reaction Biology Corporation protocol, RHKKAc fluorogenic peptide 10 μM; read-out: HDAC6 biochem
Method: (§1) Dose response testing of HDAC6 and HDAC 1 were run at Reaction Biology Corporation (RBC). Inhibition of HDAC enzymes was performed using N-terminal GST tagged human full-length recombinant HDAC6 (H88-30G, SignalChem) and C-terminal FLAG His tag human full-length recombinant HDAC1 produced in insect cells (KDA-21-365, RBC). Enzyme reactions were run in 50 mM Tris-HCl, pH8.0, 137 mM NaCl, 2.7 mM KCl, and 1 mM MgCl2 with 1 mg/ml BSA, 1% DMSO freshly added. 2× enzyme was delivered in the wells of the reaction plate except for the “no enzyme” control wells. In the latter, buffer was added. Compounds in 100% DMSO were delved into the enzyme mixture by acoustic technology (Echo550). Plates are spun down and compounds were incubation with the enzyme for 10 min at room temperature. 2× Fluorogenic peptide from p53 residues 379-382 (RHKKAc, 10 μM final concentration) was added in all wells to initiate the reaction, followed by 1 h incubation at 30° C. Developer containing Trichostatin A was added to stop the reaction and generate fluorescent color. A kinetic measurement was carried out for 20 min with 5 min interval on the Envision plate reader (Perkin Elmer, Ex/Em=360/460). End point reading i.e., plateau of the development reaction was used for analysis. Data was reported by RBC as percentage enzyme activity. Percentage inhibition was calculated by subtracting percentage enzyme activity from 100. IC50 values were calculated using GraphPad Prism 9 based on the log(inhibitor) vs. response—Variable slope (four parameters) equation.

[2] = biological target: catalytic domain 2 (CD2) of HDAC6 (Homo sapiens (Human), UniProt Q9UBN7); experiment: Cellular target engagement assay - NanoBRET; format: cell-based; conditions: NanoLuc-HDAC6(CD2) in HEK293T cells, 2 hours, read-out: IC50 (HDAC6(CD2) interaction)
[3] = biological target: human full-length recombinant HDAC1 (Homo sapiens (Human), UniProt Q13547); experiment: HDAC1 enzymatic activity assay (Reaction Biology Corporation, RHKKAc fluorogenic peptide); format: biochemical; conditions: Reaction Biology Corporation protocol, RHKKAc fluorogenic peptide 10 μM; read-out: HDAC1 biochem
Method: as §1

catalytic domain 2 (CD2) of HDAC6, sequence (Q9UBN7 482-800): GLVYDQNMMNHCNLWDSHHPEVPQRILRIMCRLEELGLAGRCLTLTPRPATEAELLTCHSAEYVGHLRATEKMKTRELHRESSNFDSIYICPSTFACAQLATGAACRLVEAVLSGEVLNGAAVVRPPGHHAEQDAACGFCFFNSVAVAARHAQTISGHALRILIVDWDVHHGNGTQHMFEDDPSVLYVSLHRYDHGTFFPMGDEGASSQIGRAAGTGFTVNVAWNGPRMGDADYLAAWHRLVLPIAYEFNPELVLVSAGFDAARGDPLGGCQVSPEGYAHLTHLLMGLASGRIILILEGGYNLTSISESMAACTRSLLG
human full-length recombinant HDAC6, sequence (Q9UBN7 whole entry): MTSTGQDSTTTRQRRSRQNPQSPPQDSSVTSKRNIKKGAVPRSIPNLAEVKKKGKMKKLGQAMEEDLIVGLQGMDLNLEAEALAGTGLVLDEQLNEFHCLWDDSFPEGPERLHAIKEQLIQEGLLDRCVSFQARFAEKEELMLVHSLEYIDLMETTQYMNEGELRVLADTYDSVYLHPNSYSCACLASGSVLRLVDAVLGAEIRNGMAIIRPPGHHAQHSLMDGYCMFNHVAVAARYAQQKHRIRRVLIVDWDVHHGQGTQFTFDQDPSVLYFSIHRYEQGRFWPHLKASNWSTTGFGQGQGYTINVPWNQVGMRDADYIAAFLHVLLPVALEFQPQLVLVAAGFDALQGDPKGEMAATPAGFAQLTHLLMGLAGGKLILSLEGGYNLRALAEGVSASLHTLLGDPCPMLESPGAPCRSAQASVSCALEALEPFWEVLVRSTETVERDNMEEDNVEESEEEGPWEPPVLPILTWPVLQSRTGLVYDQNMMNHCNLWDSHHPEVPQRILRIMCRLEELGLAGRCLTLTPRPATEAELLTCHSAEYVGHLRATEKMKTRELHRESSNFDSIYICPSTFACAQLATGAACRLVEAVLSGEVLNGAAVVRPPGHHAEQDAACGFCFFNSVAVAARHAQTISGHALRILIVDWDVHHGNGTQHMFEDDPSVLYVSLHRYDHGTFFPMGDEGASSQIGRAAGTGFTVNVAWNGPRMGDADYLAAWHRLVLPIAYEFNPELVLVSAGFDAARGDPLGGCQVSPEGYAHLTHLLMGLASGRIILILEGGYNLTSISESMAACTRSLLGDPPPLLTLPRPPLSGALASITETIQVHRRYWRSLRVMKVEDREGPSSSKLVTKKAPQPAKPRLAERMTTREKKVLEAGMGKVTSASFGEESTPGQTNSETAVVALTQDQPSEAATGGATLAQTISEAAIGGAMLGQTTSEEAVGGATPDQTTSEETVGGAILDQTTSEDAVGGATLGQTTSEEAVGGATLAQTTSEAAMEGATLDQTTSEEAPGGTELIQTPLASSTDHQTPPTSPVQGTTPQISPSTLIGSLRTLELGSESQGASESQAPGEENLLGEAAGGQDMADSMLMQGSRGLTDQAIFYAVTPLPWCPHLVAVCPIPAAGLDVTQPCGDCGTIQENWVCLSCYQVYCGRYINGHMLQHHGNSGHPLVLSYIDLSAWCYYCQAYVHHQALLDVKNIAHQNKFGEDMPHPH
human full-length recombinant HDAC1, sequence (Q13547 whole entry): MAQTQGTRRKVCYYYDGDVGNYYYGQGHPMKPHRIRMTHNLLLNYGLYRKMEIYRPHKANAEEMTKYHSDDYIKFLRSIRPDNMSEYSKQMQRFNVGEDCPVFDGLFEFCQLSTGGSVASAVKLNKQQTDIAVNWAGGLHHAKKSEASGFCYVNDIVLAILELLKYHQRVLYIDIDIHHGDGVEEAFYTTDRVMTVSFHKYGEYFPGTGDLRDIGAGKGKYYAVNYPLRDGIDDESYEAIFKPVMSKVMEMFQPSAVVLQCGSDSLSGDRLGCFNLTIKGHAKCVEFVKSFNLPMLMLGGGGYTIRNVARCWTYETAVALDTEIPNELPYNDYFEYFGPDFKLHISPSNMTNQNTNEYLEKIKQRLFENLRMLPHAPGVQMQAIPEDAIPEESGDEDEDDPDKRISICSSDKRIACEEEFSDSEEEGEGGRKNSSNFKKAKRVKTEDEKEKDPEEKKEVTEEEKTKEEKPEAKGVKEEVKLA

SMILES	IC50 [1]	IC50 [2]	IC50 [3]
Cn1cc2c(SCC(=O)c3ccc(CNC(=O)CO)s3)nc(C(F)(F)F)nc2n1 [Compound 61, 2-hydroxy-N-((5-(2-((2-methyl-6-(trifluoromethyl)-2H-pyrazolo[3,4-d]pyrimidin-4-yl)thio)acetyl)thiophen-2-yl)methyl)acetamide]	≤ 100 nM	≤ 100 nM	> 10000 nM
Cc1nc(SCC(=O)c2ccc(CNC(=O)CO)s2)c2cccnc2n1 [Compound 64, 2-hydroxy-N-((5-(2-((2-methylpyrido[2,3-d]pyrimidin-4-yl)thio)acetyl)thiophen-2-yl)methyl)acetamide]	≤ 100 nM	≤ 100 nM	> 10000 nM
O=C(CO)NCc1ccc(C(=O)CSc2nc3cc(C(F)(F)F)ncc3o2)s1 [Compound 71, 2-hydroxy-N-((5-(2-((6-(trifluoromethyl)oxazolo[5,4-c]156yrrolid-2-yl)thio)acetyl)thiophen-2-yl)methyl)acetamide]	≤ 100 nM	≤ 100 nM	1000 to 10000 nM
O=C(CO)NCc1ccc(C(=O)CSc2nc3nc(C(F)(F)F)ccc3o2)s1 [Compound 72, 2-hydroxy-N-((5-(2-((5-(trifluoromethyl)oxazolo[4,5-b]156yrrolid-2-yl)thio)acetyl)thiophen-2-yl)methyl)acetamide]	≤ 100 nM	≤ 100 nM	500 to 1000 nM
Cc1nc(SCC(=O)c2ccc(CNC(=O)CO)s2)c2cc(Cl)c(F)cc2n1 [Compound 73, N-((5-(2-((6-chloro-7-fluoro-2-methylquinazolin-4-yl)thio)acetyl)thiophen-2-yl)methyl)-2-hydroxyacetamide]	≤ 100 nM	≤ 100 nM	> 10000 nM
Cn1ncc2c(SCC(=O)c3ccc(CNC(=O)CO)s3)nc(C(F)(F)F)nc21 [Compound 74, 2-hydroxy-N-((5-(2-((1-methyl-6-(trifluoromethyl)-1H-pyrazolo[3,4-d]pyrimidin-4-yl)thio)acetyl)thiophen-2-yl)methyl)acetamide]	≤ 100 nM	≤ 100 nM	> 10000 nM
Cc1nc(SCC(=O)c2ccc(CNC(=O)CO)s2)c2cc(C(F)(F)F)ccc2n1 [Compound 76, 2-hydroxy-N-((5-(2-((2-methyl-6-(trifluoromethyl)quinazolin-4-yl)thio)acetyl)thiophen-2-yl)methyl)acetamide]	≤ 100 nM	≤ 100 nM	> 10000 nM
O=C(CO)NCc1ccc(C(=O)CSc2nc(C(F)(F)F)nc3nn(C4CC4)cc23)s1 [Compound 79, N-((5-(2-((2-cyclopropyl-6-(trifluoromethyl)-2H-pyrazolo[3,4-d]pyrimidin-4-yl)thio)acetyl)thiophen-2-yl)methyl)-2-hydroxyacetamide]	≤ 100 nM	≤ 100 nM	> 10000 nM
Cc1nc(SCC(=O)c2ccc(CNC(=O)CO)s2)c2cc(N3CCN(C)CC3)ccc2n1 [Compound 85, 2-hydroxy-N-((5-(2-((2-methyl-6-(4-methylpiperazin-1-yl)quinazolin-4-yl)thio)acetyl)thiophen-2-yl)methyl)acetamide]	≤ 100 nM	≤ 100 nM	> 10000 nM
O=C(CO)NCc1ccc(C(=O)CSc2nc(C(F)(F)F)nc3ncccc23)s1 [Compound 113, 2-hydroxy-N-((5-(2-((2-(trifluoromethyl)pyrido[2,3-d]pyrimidin-4-yl)thio)acetyl)thiophen-2-yl)methyl)acetamide]	≤ 100 nM	≤ 100 nM	> 10000 nM
O=C(CSc1nc(C(F)(F)F)nc2ncccc12)c1ccc(CNC(=O)C2CC2(F)F)s1 (stereo not drawn) [Compound 114, 2,2-difluoro-N-((5-(2-((2-(trifluoromethyl)pyrido[2,3-d]pyrimidin-4-yl)thio)acetyl)thiophen-2-yl)methyl)cyclopropane-1-carboxamide]	≤ 100 nM	≤ 100 nM	> 10000 nM
O=C(CO)NCc1ccc(C(=O)CSc2nc3ccc(C(F)(F)F)nc3o2)s1 [Compound 117, 2-hydroxy-N-((5-(2-((5-(trifluoromethyl)oxazolo[5,4-b]157yrrolid-2-yl)thio)acetyl)thiophen-2-yl)methyl)acetamide]	≤ 100 nM	≤ 100 nM	> 10000 nM
O=C(CO)NCc1ccc(C(=O)CSc2nc3ncc(C(F)(F)F)cc3o2)s1 [Compound 118, 2-hydroxy-N-((5-(2-((6-(trifluoromethyl)oxazolo[4,5-b]157yrrolid-2-yl)thio)acetyl)thiophen-2-yl)methyl)acetamide]	≤ 100 nM	≤ 100 nM	500 to 1000 nM
Cc1nc(SCC(=O)c2ccc(CNC(=O)CO)s2)c2cc(C(F)(F)F)cnc2n1 [Compound 119, 2-hydroxy-N-((5-(2-((2-methyl-6-(trifluoromethyl)pyrido[2,3-d]pyrimidin-4-yl)thio)acetyl)thiophen-2-yl)methyl)acetamide]	≤ 100 nM	≤ 100 nM	> 10000 nM
Cc1nc(SCC(=O)c2ccc(CNC(=O)CO)s2)c2cc(F)cnc2n1 [Compound 124, N-((5-(2-((6-fluoro-2-methylpyrido[2,3-d]pyrimidin-4-yl)thio)acetyl)thiophen-2-yl)methyl)-2-hydroxyacetamide]	≤ 100 nM	≤ 100 nM	> 10000 nM
COCCn1ncc2c(SCC(=O)c3ccc(CNC(=O)CO)s3)nc(C(F)(F)F)nc21 [Compound 125, 2-hydroxy-N-((5-(2-((1-(2-methoxyethyl)-6-(trifluoromethyl)-1H-pyrazolo[3,4-d]pyrimidin-4-yl)thio)acetyl)thiophen-2-yl)methyl)acetamide]	≤ 100 nM	≤ 100 nM	> 10000 nM
Cc1nc(SCC(=O)c2ccc(CNC(=O)CO)s2)c2cc(OC(F)(F)F)ccc2n1 [Compound 126, 2-hydroxy-N-((5-(2-((2-methyl-6-(trifluoromethoxy)quinazolin-4-yl)thio)acetyl)thiophen-2-yl)methyl)acetamide]	≤ 100 nM	≤ 100 nM	> 10000 nM
COCCn1cc2c(SCC(=O)c3ccc(CNC(=O)CO)s3)nc(C(F)(F)F)nc2n1 [Compound 132, 2-hydroxy-N-((5-(2-((2-(2-methoxyethyl)-6-(trifluoromethyl)-2H-pyrazolo[3,4-d]pyrimidin-4-yl)thio)acetyl)thiophen-2-yl)methyl)acetamide]	≤ 100 nM	≤ 100 nM	> 10000 nM
O=C(CO)NCc1ccc(C(=O)CSc2nc(C(F)(F)F)nc3c2cnn3C2CC2)s1 [Compound 133, N-((5-(2-((1-cyclopropyl-6-(trifluoromethyl)-1H-pyrazolo[3,4-d]pyrimidin-4-yl)thio)acetyl)thiophen-2-yl)methyl)-2-hydroxyacetamide]	≤ 100 nM	≤ 100 nM	> 10000 nM
CCn1cc2c(SCC(=O)c3ccc(CNC(=O)CO)s3)nc(C(F)(F)F)nc2n1 [Compound 135, N-((5-(2-((2-ethyl-6-(trifluoromethyl)-2H-pyrazolo[3,4-d]pyrimidin-4-yl)thio)acetyl)thiophen-2-yl)methyl)-2-hydroxyacetamide]	≤ 100 nM	≤ 100 nM	> 10000 nM
COc1cnc2nc(C)nc(SCC(=O)c3ccc(CNC(=O)CO)s3)c2c1 [Compound 140, 2-hydroxy-N-((5-(2-((6-methoxy-2-methylpyrido[2,3-d]pyrimidin-4-yl)thio)acetyl)thiophen-2-yl)methyl)acetamide]	≤ 100 nM	≤ 100 nM	> 10000 nM
Cc1nc(SCC(=O)c2ccc(CNC(=O)CO)s2)c2cc(Cl)cc(F)c2n1 [Compound 142, N-((5-(2-((6-chloro-8-fluoro-2-methylquinazolin-4-yl)thio)acetyl)thiophen-2-yl)methyl)-2-hydroxyacetamide]	≤ 100 nM	≤ 100 nM	> 10000 nM
COc1cc(C(F)(F)F)cc2c(SCC(=O)c3ccc(CNC(=O)CO)s3)nc(C)nc12 [Compound 148, 2-hydroxy-N-((5-(2-((8-methoxy-2-methyl-6-(trifluoromethyl)quinazolin-4-yl)thio)acetyl)thiophen-2-yl)methyl)acetamide]	≤ 100 nM	≤ 100 nM	> 10000 nM
O=C(CO)NCc1ccc(C(=O)CSc2nc(C(F)(F)F)nc3cccnc23)s1 [Compound 152, 2-hydroxy-N-((5-(2-((2-(trifluoromethyl)pyrido[3,2-d]pyrimidin-4-yl)thio)acetyl)thiophen-2-yl)methyl)acetamide]	≤ 100 nM	≤ 100 nM	> 10000 nM
O=C(CSc1nc(C(F)(F)F)nc2nn(C3CC3)cc12)c1ccc(CNC(=O)C2CC2(F)F)s1 (stereo not drawn) [Example 43, N-((5-(2-((2-cyclopropyl-6-(trifluoromethyl)-2H-pyrazolo[3,4-d]pyrimidin-4-yl)thio)acetyl)thiophen-2-yl)methyl)-2,2-difluorocyclopropane-1-carboxamide]	≤ 100 nM	100 to 500 nM	> 10000 nM
